Reference: patent publication US11230526B1, “Cylcoalkenyl derivatives useful as agonists of the GPR120 and/or GPR40 receptors” (Janssen Pharmaceutica NV, priority 2018, dated 2022)

How the values were obtained:
Format in all cases: cell-based
Human GPR120 short form = biological target: T1, Human GPR120 short form (Homo sapiens, UniProt Q5NUL3); assay: Human GPR120 calcium flux assay, Procedure Calcium B (4200 cells/well)
T1 construct: expressed in transfected cells
T1 sequence (Q5NUL3 1-361): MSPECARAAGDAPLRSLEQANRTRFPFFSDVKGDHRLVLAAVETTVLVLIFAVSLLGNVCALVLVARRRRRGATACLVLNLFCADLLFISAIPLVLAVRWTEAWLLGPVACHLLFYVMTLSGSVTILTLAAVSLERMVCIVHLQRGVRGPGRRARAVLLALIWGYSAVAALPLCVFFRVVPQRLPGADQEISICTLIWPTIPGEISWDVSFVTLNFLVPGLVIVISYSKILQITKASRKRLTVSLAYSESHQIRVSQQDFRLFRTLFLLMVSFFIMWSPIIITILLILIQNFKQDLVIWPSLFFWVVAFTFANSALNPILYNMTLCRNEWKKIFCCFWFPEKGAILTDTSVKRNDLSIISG
Summary of the method: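 Agonist EC50 came from a four-parameter fit of RFU (Fmax−Fmin) read over 300 s on FLIPR. Cells were HEK293 stably transfected with human GPR120 (NM_001195755.1) at 4200 per well, serum-starved 1 h and loaded with Fluo-4 NW dye with probenecid before ligand addition.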

[1] = biological target: T2, long form of human GPR120 (Homo sapiens, UniProt Q5NUL3); assay: Human GPR120 DiscoveRx PathHunter Beta-Arrestin assay, Procedure β-arrestin A
T2 construct: host or cells: PathHunter CHO-K1 GPR120 β-Arrestin Cell Line
Summary of the method: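 PathHunter CHO-K1 cells expressing long-form human GPR120 (3000/well) were seeded overnight. They were then preincubated 60 min in HBSS with 20 mM HEPES and 0.1% BSA, pH 7.4, and exposed to compound for 90 min at 37 °C. β-Arrestin recruitment was read as β-gal complementation luminescence. EC50 came from % activity versus positive control, Hill slope fixed at 1.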

human GPR40 = biological target: T3, human GPR40 (Homo sapiens, UniProt O14842); assay: GPR40 calcium flux assay, human GPR40; settings: HEK293 cells stably expressing GPR40; table does not say human or rat
T3 construct: expressed in transfected cells
Summary of the method: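 Cells preincubated 1 h at 37° C. in HBSS, 20 mM HEPES, 0.1% BSA, then Fluo 8 calcium dye 30 min at 37° C. and 15 min at room temperature.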

T2 sequence (Q5NUL3 1-377 isoform Q5NUL3-1): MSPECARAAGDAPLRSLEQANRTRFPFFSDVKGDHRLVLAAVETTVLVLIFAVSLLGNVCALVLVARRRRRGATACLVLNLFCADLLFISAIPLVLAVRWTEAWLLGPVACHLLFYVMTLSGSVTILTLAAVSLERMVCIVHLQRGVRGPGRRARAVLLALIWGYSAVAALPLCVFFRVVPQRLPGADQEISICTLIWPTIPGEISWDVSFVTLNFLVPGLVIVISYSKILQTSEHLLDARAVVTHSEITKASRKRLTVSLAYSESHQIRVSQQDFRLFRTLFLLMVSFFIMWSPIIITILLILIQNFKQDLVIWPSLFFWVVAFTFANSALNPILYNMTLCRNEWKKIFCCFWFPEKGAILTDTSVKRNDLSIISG
T2 sequence (P32121 whole entry partner): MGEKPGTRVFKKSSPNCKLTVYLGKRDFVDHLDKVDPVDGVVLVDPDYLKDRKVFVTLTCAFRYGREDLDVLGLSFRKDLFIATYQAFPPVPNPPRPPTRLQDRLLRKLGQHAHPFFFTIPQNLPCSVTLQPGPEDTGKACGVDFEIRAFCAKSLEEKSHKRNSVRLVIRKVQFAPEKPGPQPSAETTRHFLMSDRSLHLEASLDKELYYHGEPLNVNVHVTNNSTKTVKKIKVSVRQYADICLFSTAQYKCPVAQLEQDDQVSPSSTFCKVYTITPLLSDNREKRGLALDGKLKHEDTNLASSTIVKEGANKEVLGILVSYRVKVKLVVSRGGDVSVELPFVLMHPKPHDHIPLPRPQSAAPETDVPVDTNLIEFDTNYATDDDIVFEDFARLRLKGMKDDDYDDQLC
T3 sequence (O14842 whole entry): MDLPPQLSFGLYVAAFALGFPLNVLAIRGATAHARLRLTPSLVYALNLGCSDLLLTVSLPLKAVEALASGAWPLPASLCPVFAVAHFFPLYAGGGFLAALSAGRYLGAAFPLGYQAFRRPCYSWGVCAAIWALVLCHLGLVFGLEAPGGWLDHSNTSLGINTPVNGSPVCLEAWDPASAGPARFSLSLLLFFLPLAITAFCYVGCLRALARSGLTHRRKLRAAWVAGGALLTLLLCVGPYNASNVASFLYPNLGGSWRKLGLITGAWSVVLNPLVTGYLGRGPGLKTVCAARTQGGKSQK

| Structure (SMILES) | EC50 (Human GPR120 short form) | EC50 [1] | EC50 (human GPR40) |
| --- | --- | --- | --- |
| COc1cc(OCC2=C(c3ccc(Cl)cc3)CCC2)ccc1CCC(=O)O [Compound 97, 3-[4-[[2-(4-chlorophenyl)cyclopenten-1-yl]methoxy]-2-methoxy-phenyl]Propanoic Acid] | 237 nM | 754 nM | 834 nM |
| Cc1cc(CCC(=O)O)ccc1OCC1=C(c2ccc(F)cc2)CC(F)(F)C1 [Compound 180, 3-[4-[[4,4-difluoro-2-(4-fluorophenyl)cyclopenten-1-yl]methoxy]-3-methyl-phenyl]Propanoic Acid] | 26 nM | 78 nM | > 5000 nM |
| O=C(O)CCc1ccc(OCC2=C(c3ccc(F)cc3)CC(F)C2)cc1C(F)(F)F (stereo not drawn) [Compound 186, 3-[4-[[4-fluoro-2-(4-fluorophenyl)cyclopenten-1-yl]methoxy]-2-(trifluoromethyl)phenyl]Propanoic Acid] | 453 nM | 1790 nM | 382 nM |
| O=C(O)CCc1cc(F)c(OCC2=C(c3cccc(F)c3)CC(F)(F)C2)c(F)c1 [Compound 215, 3-[4-[[4,4-difluoro-2-(3-fluorophenyl)cyclopenten-1-yl]methoxy]-3,5-difluoro-phenyl]Propanoic Acid] | 75 nM | 282 nM | > 5000 nM |
| O=C(O)CCc1cc(F)c(OCC2=C(c3ccc(F)cc3)CC(F)(F)C2)c(F)c1 [Compound 183, 3-[4-[[4,4-difluoro-2-(4-fluorophenyl)cyclopenten-1-yl]methoxy]-3,5-difluoro-phenyl]Propanoic Acid] | 51 nM | 185 nM | > 5000 nM |
| O=C(O)CCc1cc(F)c(OCC2=C(c3ccc(F)c(F)c3)CC(F)(F)C2)c(F)c1 [Compound 184, 3-[4-[[2-(3,4-difluorophenyl)-4,4-difluoro-cyclopenten-1-yl]methoxy]-3,5-difluoro-phenyl]Propanoic Acid] | 91 nM | 431 nM | > 5000 nM |
| O=C(O)CCc1ccc(OCC2=C(c3ccc(F)cc3)CC(F)(F)C2)cc1C(F)(F)F [Compound 188, 3-[4-[[4,4-difluoro-2-(4-fluorophenyl)cyclopenten-1-yl]methoxy]-2-(trifluoromethyl)phenyl]Propanoic Acid] | 411 nM | 548 nM | 142 nM |
| Cc1ccc(C2=C(COc3ccc(CCC(=O)O)c(C)c3C)CC(F)(F)C2)cc1F [Compound 172, 3-[4-[[4,4-difluoro-2-(3-fluoro-4-methyl-phenyl)cyclopenten-1-yl]methoxy]-2,3-dimethyl-phenyl]Propanoic Acid] | 42 nM | 32 nM | > 5000 nM |
| Cc1cc(CCC(=O)O)ccc1OCC1=C(c2ccc(F)cc2)CCC1 [Compound 42] | 61 nM | 340 nM | > 5000 nM |
| Cc1cc(CCC(=O)O)ccc1OCC1=C(c2ccc(Cl)cc2)CC(F)(F)C1 [Compound 166, 3-[4-[[2-(4-chlorophenyl)-4,4-difluoro-cyclopenten-1-yl]methoxy]-3-methyl-phenyl]Propanoic Acid] | 24 nM | 29 nM | 4000 nM |
| Cc1cc(CCC(=O)O)ccc1OCC1=C(c2ccc(F)cc2F)CCC(F)(F)C1 [Compound 535, 3-[4-[[2-(2,4-difluorophenyl)-5,5-difluoro-cyclohexen-1-yl]methoxy]-3-methyl-phenyl]Propanoic Acid] | 120 nM | 108 nM | > 5000 nM |
| Cc1cc(CCC(=O)O)ccc1OCC1=C(c2ccccc2)CC(F)(F)C1 [Compound 193, 3-[4-[(4,4-difluoro-2-phenyl-cyclopenten-1-yl)methoxy]-3-methyl-phenyl]Propanoic Acid] | 30 nM | 133 nM | > 5000 nM |
| Cc1c(CCC(=O)O)ccc(OCC2=C(c3ccc(F)cc3)CCC(F)(F)C2)c1C [Compound 497, 3-[4-[[5,5-difluoro-2-(4-fluorophenyl)cyclohexen-1-yl]methoxy]-2,3-dimethyl-phenyl]Propanoic Acid] | 75 nM | 122 nM | > 5000 nM |
| O=C(O)CCc1cc(F)c(OCC2=C(c3ccc(Cl)s3)CCC(F)(F)C2)c(F)c1 [Compound 543, 3-[4-[[2-(5-chloro-2-thienyl)-5,5-difluoro-cyclohexen-1-yl]methoxy]-3,5-difluoro-phenyl]Propanoic Acid] | 191 nM | 287 nM | > 5000 nM |
| O=C(O)CCc1ccc(OCC2=C(c3ccc(F)cc3)CCC2)c(F)c1 [Compound 49] | 136 nM | 123 nM | > 5000 nM |
| N#Cc1ccc(C2=C(COc3c(F)cc(CCC(=O)O)cc3F)CC(F)(F)CC2)s1 [Compound 572, 3-[4-[[2-(5-cyano-2-thienyl)-5,5-difluoro-cyclohexen-1-yl]methoxy]-3,5-difluoro-phenyl]Propanoic Acid] | 641 nM | 1010 nM | > 5000 nM |
| O=C(O)CCc1ccc(OCC2=C(c3ccc(F)cc3)CC(F)(F)C2)c(F)c1 [Compound 214, 3-[4-[[4,4-difluoro-2-(4-fluorophenyl)cyclopenten-1-yl]methoxy]-3-fluoro-phenyl]Propanoic Acid] | 78 nM | 84 nM | > 5000 nM |
| O=C(O)CCc1cc(F)c(OCC2=C(c3ccc(F)cc3F)CCC(F)(F)C2)c(F)c1 [Compound 536, 3-[4-[[2-(2,4-difluorophenyl)-5,5-difluoro-cyclohexen-1-yl]methoxy]-3,5-difluoro-phenyl]Propanoic Acid] | 207 nM | 215 nM | > 5000 nM |
| O=C(O)CCc1cc(F)c(OCC2=C(c3ccccc3)CCC(F)(F)C2)c(F)c1 [Compound 539, 3-[4-[(5,5-difluoro-2-phenyl-cyclohexen-1-yl)methoxy]-3,5-difluoro-phenyl]Propanoic Acid] | 192 nM | 292 nM | > 5000 nM |
| Cc1cc(CC(C)C(=O)O)ccc1OCC1=C(c2ccc(F)cc2)CCC1 (stereo not drawn) [Compound 160, 3-[4-[[2-(4-fluorophenyl)cyclopenten-1-yl]methoxy]-3-methyl-phenyl]-2-methyl-Propanoic Acid] | 215 nM | 528 nM | > 5000 nM |
| O=C(O)CCc1ccc(OCC2=C(c3ccc(F)cc3)CCC(F)(F)C2)cc1 [Compound 499, 3-[4-[[5,5-difluoro-2-(4-fluorophenyl)cyclohexen-1-yl]methoxy]phenyl]Propanoic Acid] | 215 nM | 132 nM | > 5000 nM |
| O=C(O)CCc1cc(F)c(OCC2=C(c3ccc(F)c(F)c3)CCC(F)(F)C2)c(F)c1 [Compound 533, 3-[4-[[2-(3,4-difluorophenyl)-5,5-difluoro-cyclohexen-1-yl]methoxy]-3,5-difluoro-phenyl]Propanoic Acid] | 309 nM | 532 nM | > 5000 nM |
| Cc1cc(OCC2=C(c3ccc(Cl)cc3)CCC(F)(F)C2)ccc1CCC(=O)O [Compound 519, 3-[4-[[2-(4-chlorophenyl)-5,5-difluoro-cyclohexen-1-yl]methoxy]-2-methyl-phenyl]Propanoic Acid] | 222 nM | 772 nM | 3310 nM |
| O=C(O)CCc1ccc(OCC2=C(c3ccc(Cl)cc3)CCC2)c(Cl)c1Cl [Compound 99, 3-[2,3-dichloro-4-[[2-(4-chlorophenyl)cyclopenten-1-yl]methoxy]phenyl]Propanoic Acid] | 44 nM | 147 nM | > 5000 nM |
